Laboratory results as given in ChEMBL document CHEMBL2407004, “3-Acyl-5-hydroxybenzofuran derivatives as potential anti-estrogen breast cancer agents: a combined experimental and theoretical investigation” (Bioorg Med Chem Lett, 2013).

Test system: MCF7
Experiment: Antiproliferative activity against human MCF7 cells after 48 hrs by MTT assay
Format: functional, cell-based
Details: MCF7, 48 h

SMILES	IC50 [µM]
COc1cc2occ(C(=O)/C=C/c3cccc(Cl)c3)c2cc1O	464
CC/C(=C(\c1ccccc1)c1ccc(OCCN(C)C)cc1)c1ccccc1 [TAMOXIFEN]	12.3
COc1cc2occ(C(=O)c3ccc(-c4ccccc4)cc3)c2cc1O	1660
COc1cc2occ(C(=O)c3cccc(NC(C)=O)c3)c2cc1O	43.1
COc1cc2occ(C(=O)/C=C/c3ccc4c(c3)OCO4)c2cc1O	2110

Other lines, results leading:

IC50 [µM]	SMILES
644	O=C(/C=C/c1cccc(Cl)c1)c1coc2cc(F)c(O)cc12
167	COc1cc2occ(C(=O)/C=C/c3ccccc3)c2cc1O
814	COc1ccc(/C=C/C(=O)c2coc3cc(F)c(O)cc23)cc1
